The assay is described as follows: Binding affinity for DHP (Dihydropyridine) site of L-type calcium channel of calf heart in the resting state.

SMILES strings stand for the structures.

For orientation: IC50 means the point on the concentration scale where inhibition reaches its midpoint. Regarding `CCOC(=O)C1=C(C)NC(C)=C(C#N)[C@@H]1c1cnccc1-c1cccc2ccccc12`, the IC50 is 270 nM.

Consider `CCOC(=O)C1=C(C)NC(C)=C(C#N)[C@@H]1c1cnccc1-c1ccc2ccccc2c1`, for which the half-inhibitory concentration (IC50) was determined as 100 nM.

In the case of `CCOC(=O)C1=C(C)NC(C)=C(C#N)[C@@H]1c1cnccc1-c1ccccc1`, the IC50 is 250 nM.

The values are drawn from BindingDB's records for doi:10.1016/S0960-894X(97)10006-3 (1997).
